“And” between values parts separate entries of the source, which are not always exact repeats. Equal values may be shown once. “Also recorded” adds a separate entry of the source.
Experiments:
[1] = biological target: Bromelain (Ananas comosus, UniProt P14518); parameters: method as in PMID 33177555; conditions: cited from earlier work
[2] = biological target: T1, Papain (Carica papaya, UniProt P00784); parameters: method as in PMID 21329361; conditions: cited from earlier work
T1 construct: purchased Sigma
T1 sequence (P00784 134-345): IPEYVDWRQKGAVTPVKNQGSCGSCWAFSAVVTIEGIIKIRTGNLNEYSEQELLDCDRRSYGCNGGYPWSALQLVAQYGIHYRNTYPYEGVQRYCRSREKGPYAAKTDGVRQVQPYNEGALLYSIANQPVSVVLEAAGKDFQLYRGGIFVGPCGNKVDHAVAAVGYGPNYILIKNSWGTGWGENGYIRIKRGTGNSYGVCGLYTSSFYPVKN

[3] = system: PLpro; conditions: noncovalent, binding to S4–S3 subsites; read-out: IC50 for inhibition of PLpro; cited from earlier work
[4] = biological target: T1, Papain; test: Papain inhibition, IC50 (Z-Phe-Arg-MCA substrate, 10 min pre-incubation); assay type: biochemical; conditions: for IC50 / IC50 for inhibition of Papain: 30 °C, 10 min pre-incubation, 100 mM sodium phosphate, 1 mM EDTA, pH 6.0, Z-Phe-Arg-MCA, Papain 120 nM
Method: Papain and Bromelain were purchased from Sigma. Papain was previously activated at 25 °C in a degassed 100 mM sodium phosphate, 1 mM EDTA, pH 6.0 buffer containing 5 mM DTT (dithiothreitol) for 10 min, as previously described. To remove the DTT excess, a 1 mL solution of activated Papain was loaded on a 3 mL syringe with 1 mL Sephadex G25 size exclusion resin (Amersham Pharmacia, Amersham, UK). The enzyme was eluted with the same assay buffer, and its activity was monitored using Z-Phe-Arg-MCA as the substrate.
The activities of Cathepsin L and Papain were assessed using Z-Phe-Arg-MCA.

[5] = biological target: SARS-CoV-2 3CLpro (Severe acute respiratory syndrome coronavirus 2, UniProt P0DTD1); test: 3CLpro inhibition, IC50 (FRET substrate, 10 min pre-incubation); assay type: biochemical
[6] = biological target: T1, Papain; test: Papain inactivation kinetics, two-step irreversible mechanism; assay type: biochemical; conditions: Papain 48nM, Z-FR-MCA 1.5µM, 100 mM sodium phosphate, 1 mM EDTA, pH 6.0; for KI (inactivation): read-out: Ki, Papain inactivation (Ki = k-3/k3)
Text: (§1) This is confirmed by kinetic analyses of the reaction of THIA-3 with Papain, used as a diagnostic method as previously reported. The kinetic constant values of the reaction of the ten THIA compounds with Papain, for the reaction paths shown below, are reported in Table S2.
Table S2. Values of the kinetic constants for Papain inactivation kinetics analyses by all THIA compounds obtained for a two-step irreversible mechanism (see below the reaction paths) as reported in the reference (31)
Conditions: Papain 48nM, substrate Z-FR-MCA 1.5µM. Buffer: 100 mM sodium phosphate, 1 mM EDTA, pH 6.0. The kinetic constants for the reaction are indicated in the scheme below.
Ki represents the relation: Ki = k-3/k3, which is the dissociation constant describing the binding affinity between the inhibitor and the enzyme. In contrast, the IC50 is the concentration of inhibitor required to reduce enzymatic activity to half of its uninhibited value. The IC50 is less precise than Ki and depends on measurement conditions and the mechanism of inhibition. […] It is noteworthy that kinetic constants for Papain inactivation by THIA compounds are consistent with a two-step irreversible mechanism.

[7] = Stability of THIA derivatives in organic solvents and buffers (LC-MS); assay type: physicochemical; conditions: for Stability of 10 mM stock solutions in DMSO stored at −20 °C: 10 mM in DMSO, freezer −20 °C, LC-MS
Method: We chose THIA-3 as a reference due to its simplicity in larger-scale synthesis to evaluate the stability of this class of compounds. […] In the Tris buffer, decomposition to 1,3-diphenylurea was very slow, with some decomposition only apparent after 12 h of incubation (Figure S1B). We also evaluated the stability of 10 mM stock solutions of the ten THIAs in DMSO stored in a freezer (−20 °C) by Liquid Chromatography Mass Spectrometry (LC-MS). […] DMSO is also considered a reagent, but we have not explored the decomposition of THIA compounds in DMSO further, as it falls outside the scope of this work.
Figure S1. (A) - Stability THIA-3 in DMSO with 1% H2O. (B)- Stability of THIA-3 in water,100 mM sodium phosphate, Tris buffer pH 7.4, with 1 to 40% ACN.
Figure S2. Stability of THIAs in dimethyl sulfoxide and stored at -20 °C

[8] = biological target: SARS-CoV-2 PLpro (Severe acute respiratory syndrome coronavirus 2, UniProt P0DTD1); test: biochemical
[9] = biological target: PLpro (Severe acute respiratory syndrome coronavirus 2, UniProt P0DTD1); test: Type of inhibition (reversibility assay) on PLpro; assay type: biochemical, SARS-CoV-2
[10] = biological target: 3CLpro (Severe acute respiratory syndrome coronavirus 2, UniProt P0DTD1); test: Type of inhibition (time dependence, reversibility) on 3CLpro; assay type: biochemical, SARS-CoV-2; conditions: reverted by reducing agents
Method: (§2) Initially, we identified the type of inhibition in each protease using THIA-3 as a reference compound for all the tested THIA derivatives. […] Due to the susceptibility of the THIA derivatives to reducing agents, such as Cys or DTT (Figure S4), the proteases Papain, Cathepsin L, 3CLpro, and PLpro were separately pre-activated by 5 mM DTT during 30 min, which was removed by gel filtration, forming stock solutions of the activated proteases, and then kept at −20 °C under an N2 atmosphere for future use.
as §1
(§3) Figure S3. […] The assay has been performed following the procedure described in Reference ACS Omega 6 (2021) 16584−16591. https://doi.org/10.1021/acsomega.1c01797.

[11] = biological target: T1, Papain; test: Type of inhibition (time dependence, reversibility) on Papain; assay type: biochemical; conditions: reverted by reducing agents
Method: as §2, §1, §3
Figure S4. Inhibition of Papain by THIA-3 and its reversibility by cysteine (Cys) as a reducing agent. Z-FR-MCA as substrate, Papain activity was assessed before and after pre-incubation with 5µM THIA-3 for 5 min, and then assayed after Cys addition (10 µM).

[12] = biological target: T2, Cathepsin L (Homo sapiens, UniProt P07711); test: Type of inhibition on Cathepsin L; assay type: biochemical
T2 construct: made in house; host or cells: Pichia pastoris
T2 sequence (P07711 114-333): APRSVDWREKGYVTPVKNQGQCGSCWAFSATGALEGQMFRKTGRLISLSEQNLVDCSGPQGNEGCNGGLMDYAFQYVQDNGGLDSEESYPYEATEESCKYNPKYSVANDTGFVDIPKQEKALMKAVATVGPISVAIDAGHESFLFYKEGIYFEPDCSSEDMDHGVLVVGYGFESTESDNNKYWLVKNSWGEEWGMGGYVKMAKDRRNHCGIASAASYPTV
Method: as §2

[13] = IC50 for inhibition of 3CLpro, 30 °C, 10 min pre-incubation, 50 mM Tris, 1 mM EDTA, pH 7.5, Abz-[…](Dnp)-NH2, 3CLpro 27 nM
[14] = IC50 for inhibition of 3CLpro (bound), unit inferred

Sequence of Bromelain (P14518 whole entry): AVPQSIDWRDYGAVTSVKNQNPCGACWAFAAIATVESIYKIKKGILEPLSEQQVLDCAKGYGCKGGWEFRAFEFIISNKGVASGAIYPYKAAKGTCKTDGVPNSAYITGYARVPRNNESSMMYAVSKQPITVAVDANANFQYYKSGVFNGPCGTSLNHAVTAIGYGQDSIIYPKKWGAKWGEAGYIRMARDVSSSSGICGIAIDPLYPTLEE

SMILES | IC50 [4] | IC50 for inhibition of Papain [4] | IC50 [5, 13] [nM] | k3, Papain inactivation [6] [µM/s] | k4, Papain inactivation [6] [s⁻¹] | KI (inactivation) [6] [nM] | Stability of 10 mM stock solutions in DMSO stored at −20 °C [7] | IC50 [8] [nM] | also measured
CC(C)C[C@H](NC(=O)[C@H]1O[C@@H]1C(=O)O)C(=O)NCCCCN=C(N)N (relative stereo) [E-64, L-trans-Epoxysuccinyl-leucylamido (4-guanidino)butane] | – | – | – | – | – | – | – | – | Inhibition of Bromelain [1]: poor inhibition
Cc1ccc(-n2sc(=O)n(Cc3ccc(F)cc3)c2=O)cc1 [CCG-50014, 4-(4-fluorobenzyl)-2-p-tolyl-1,2,4-thiadiazolidine-3,5-dione] | – | – | – | – | – | – | – | – | Inhibition of Papain [2]: complete absence of papain inhibition; also recorded: failed to inhibit Papain
O=c1sn(-c2ccccc2)c(=O)n1Cc1ccccc1 [THIA-1] | 2160 ± 90 nM | in the μM range | 130 ± 10 | 19.9 | 0.013 | 260 | the most resistant | 25000 ± 3000 | –
COc1ccc(-n2sc(=O)n(Cc3ccccc3)c2=O)cc1 [THIA-2] | 1280 ± 70 nM | in the μM range | 120 ± 10 | 24.6 | 0.012 | 320 | the most resistant | 8300 ± 800 | –
O=c1sn(-c2ccccc2)c(=O)n1-c1ccccc1 [THIA-3] | 140 ± 20 nM | – | 110 ± 10 | 19.7 | 0.008 | 170 | – | 8500 ± 200 | Type of inhibition of PLpro [9]: reversible inhibition; Type of inhibition of 3CLpro [10]: covalent irreversible inhibition; also recorded: two-step covalent enzyme inactivation mechanism; Type of inhibition of Papain [11]: covalent irreversible inhibition; also recorded: two-step covalent enzyme inactivation mechanism; Type of inhibition of Cathepsin L [12]: irreversible inhibition; Stability in DMSO with 1% water [7]: decomposed to 1,3-diphenylurea; Stability in acetonitrile (ACN) [7]: remained stable
COc1ccc(-n2sc(=O)n(-c3ccccc3)c2=O)cc1 [THIA-4] | 70 nM and 71 nM | – | 130 ± 10 | 4.9 | 0.015 | 80 | – | 7600 ± 900 | –
COc1ccc(-n2sc(=O)n(-c3ccc(C)cc3)c2=O)cc1 [THIA-5] | 102 ± 3 nM | – | 90 ± 10 | 12.3 | 0.021 | 270 | – | 3900 ± 700 | –
COc1ccc(-n2sc(=O)n(-c3ccc(OC)cc3)c2=O)cc1 [THIA-6] | 10 ± 1 nM | – | 30 ± 10 | 14.5 | 0.019 | 270 | – | 12500 ± 900 | Fold higher Papain inhibitory potency than THIA-4 ([4]; ratio of Papain IC50 values): sevenfold; Fold increase in Papain inhibitory potency compared to THIA-8 ([4]; ratio of Papain IC50 values): 240 fold; IC50 ([5]; unit inferred): < 50 nM
COc1ccc(-n2sc(=O)n(-c3ccc(Cl)cc3)c2=O)cc1 [THIA-7] | 130 ± 10 nM | in the nanomolar range | 10 ± 10 | 17.3 | 0.009 | 160 | the most resistant | 14400 ± 700 | IC50 [5, 14]: < 50 nM
COc1ccc(-n2sc(=O)n(C3CCCCC3)c2=O)cc1 [THIA-8] | 2400 ± 100 nM | in the μM range | 190 ± 10 | 109.9 | 0.016 | 680 | the most resistant | 4200 ± 100 | –
Cc1ccc(-n2sc(=O)n(-c3ccccc3)c2=O)cc1 [THIA-9] | 110 ± 10 nM | – | 160 ± 80 | 14.5 | 0.024 | 340 | – | 10400 ± 400 | –
O=c1sn(-c2ccc(F)cc2)c(=O)n1-c1ccccc1 [THIA-10] | 10 nM and 11 nM | – | 20 ± 10 | 13.7 | 0.022 | 310 | the most resistant; also recorded: THIA-10 No degradation detected | 10000 ± 1000 | Type of inhibition of Papain [11]: two-step covalent enzyme inactivation mechanism; IC50 [5, 14]: < 50 nM

— article PMC12526058, “1,2,4-Thiadiazolidin-3,5-Diones as Inhibitors of Cysteine Proteases” (Molecules, 2025)
